The values that follow come from paper PMC7870773, “Investigation of the cytotoxicity of bioinspired coumarin analogues towards human breast cancer cells” (Molecular Diversity, 2020).

Series [1] relates to MCF-7 breast cancer cells. In words: MTT cell viability, 48-h incubation, complete medium, MCF-7. The class given is cell-based, human. Conditions: for IC50: Homo sapiens, MCF7, 48-h incubation, complete medium, mean ± SD. Here is the method: (§1) Unless otherwise specified, all cell culture experiments were performed in a humidified 5% (v/v) CO2 air atmosphere at 37 °C in complete medium, and cell culture growth media were supplemented with 10% (v/v) foetal bovine serum and 2 mM L-glutamine. Human breast adenocarcinoma cell lines were cultured, maintained at densities lower than 1 × 10^6 cells/cm^2 and discarded upon reaching passage number 60. Stromal healthy cells (human colorectal fibroblasts, 18Co) were cultured using complete DMEM medium supplemented also with 1% (v/v) penicillin–streptomycin. Cells were maintained at densities less than 1 × 10^6 cells/cm^2 and discarded upon reaching passage number 12.
(§2) The full library of coumarins was tested in both breast cancer cell lines, i.e. MCF-7 and MDA-MB-231. Fibroblast were used as “healthy” control. Stocks of compounds 3a–3c, 4a–4m and 5 were dissolved in pure DMSO and then diluted in complete media. (Note that DMSO concentration was kept lower than 0.5% (v/v).) Briefly, MCF-7 and MDA-MB-231 cells were seeded in 96-well plates (3799, Corning Inc., NY, USA) at a density of 1 × 10^4 and 6.7 × 10^3 cells/cm^2, respectively, whereas 18Co fibroblasts were seeded at a density of 1 × 10^4 cells/cm^2. Cells were incubated with coumarin derivatives at concentrations 0.1, 1, 10, 50, 100 and 250 μM for 48 h. Untreated cells (negative) and cells incubated with 0.5% (v/v) DMSO in complete media (positive) were used as controls.
(§3) For each treatment, cell viability was measured via MTT assay after 48-h incubation as following described. Cell culture medium was replaced with 150 μL of fresh medium and 30 μL of MTT solution, and cells were incubated for 4 h (37 °C, 5% CO2). After the formazan crystal formation, cell culture medium was removed from each well and replaced with 200 μL of DMSO. The absorbance was measured at 540-nm wavelength using a plate reader (Synergy 2 Biotek plate reader, Gen5 software).
(§4) IC50 values were calculated (nonlinear regression, normalized response–variable slope) with GraphPad Prism (version 7.04). Values were ranked and classified as: high toxicity, moderate toxicity, poor toxicity and no toxicity. Threshold were set as 60, 80 and > 100 μM, respectively. The selection was used in order to test only the most toxic coumarins under cell culture condition more relevant to the tumour microenvironment, i.e. deprived cell culture media (Sect. 3.3).

The test system of series [2] is MDA-MB-231 breast cancer cells. The experiment in a line: MTT cell viability, 48-h incubation, complete medium, MDA-MB-231. It counts as cell-based, human. Conditions: for IC50: Homo sapiens, MDA-MB-231, complete medium, mean ± SD. How it is done:
as §1, §2, §3, §4

The test system of the next series is 18Co colon fibroblasts. In words: MTT cell viability, 48-h incubation, 18Co fibroblasts (healthy control). It counts as cell-based, human. Conditions: for IC50: Homo sapiens, Fibroblast, 48-h incubation, healthy control, mean ± SD. How it is done:
as §1, §2, §3, §4

Series [3] concerns MCF-7 breast cancer cells. The experiment in a line: MTT cell viability under nutrient-deprived conditions, MCF-7. The class given is cell-based. Conditions: Homo sapiens, MCF7, up to 48 h, average ± SD. How it is done: (§5) Cells were culture using nutrient-deprived cell culture conditions (i.e. cell culture media with no glucose, L-glutamine, HEPES and sodium pyruvate) to mimic conditions similar to the tumour microenvironment. Note that these experiments were performed only using breast cancer cells. MCF-7 and MDA-MB-231 cells were seeded in 96-well plates (Corning Inc., NY, USA) at a density of 1 × 10^4 and 6.7 × 10^3 cells/cm^2, respectively. Cells were incubated with coumarin derivatives at concentrations of 0.1, 1, 10, 50, 100 and 250 μM up to 48 h. Untreated cells (negative) and cells incubated with 0.5% (v/v) DMSO in complete media (positive) were used as controls.
as §3, §4
(§6) On that basis, we exposed the breast cancer cells to nutrient-deprived conditions where culture media were supplemented only with 2.5% v/v FBS, but not additional glucose, L-glutamine, sodium pyruvate. The coumarins tested were auraptene (4k), umbelliprenin (4l) and analogues 4d, 4c and 4g. […] In similar studies, Zhang et al. and Jun et al. reported the high preferential cytotoxicity of umbelliprenin (4l) and its C6 analogue under NDC against pancreatic cancer cells. It should be therefore noted that these derivatives could represent a potential new tool for treating aggressively metastatic hypoxic tumours. The exact mechanism of action, though, should be further investigated.

Series [4] concerns MDA-MB-231 breast cancer cells. The experiment in a line: MTT cell viability under nutrient-deprived conditions, MDA-MB-231. The class given is cell-based. Conditions: Homo sapiens, up to 48 h, average ± SD. How it is done: as §5, §3, §4, §6

Bounds are passed on as bounds.

A word on the IC50: it is the concentration that inhibits the measured activity by half. By melting point is commonly meant the temperature, or range, at which the solid turns liquid.

For the compound `CCCc1cc(=O)oc2cc(O)ccc12` [3a, 7-Hydroxy-4-propyl-2H-chromen-2-one], the melting point is 130 °C. Besides, the IC50 in series [1] was 225 ± 19 µM. Besides, the IC50 in series [2] was 206 ± 9 µM.
Take `Cc1cc(=O)oc2cc(O)cc(O)c12` [3b, 5,7-Dihydroxy-4-methyl-2H-chromen-2-one]: the IC50 in series [1] and in series [2] was greater than 250 µM throughout.
In the case of `O=c1ccc2ccc(O)cc2o1` [3c, 7-hydroxy-coumarin], the IC50 (in series [1]; in series [2]; in the series with 18Co colon fibroblasts) was greater than 250 µM each time.
`CC(C)=CCOc1ccc2c(C)cc(=O)oc2c1` [4a, 7-Prenyloxy-4-methyl-2H-chromen-2-one] returned a melting point of 84 °C. Further, the IC50 in series [1] turned out to be 179 ± 35 µM. Also, the IC50 in series [2] is 169 ± 23 µM.
For `CC(C)=CCC/C(C)=C/COc1ccc2c(C)cc(=O)oc2c1` [4b, 7-Geranyloxy-4-methyl-2H-chromen-2-one], the IC50 in series [1] was 129 ± 13 µM; in series [2], 137 ± 9 µM.
As for `CC(C)=CCCC(C)=CCCC(C)=CCOc1ccc2c(C)cc(=O)oc2c1` [4c, 7-Farnesyloxy-4-methyl-2H-chromen-2-one], the IC50 is 105 ± 3 µM in series [1]; 110 ± 29 µM in series [2]; greater than 250 µM with 18Co colon fibroblasts; 19 ± 3 µM in series [3]; 51 ± 9 µM in series [4].
For `CCCCCCCCOc1ccc2c(C)cc(=O)oc2c1` [4d, 4-Methyl-7-octyloxy-2H-chromen-2-one], the melting point was 51 °C. Also, in series [1], the IC50 was found to be 82 ± 19 µM. For the same compound, in series [2], the “cytotoxicity in words, MDA-MB-231” value is reported as “slight toxic effect” and the IC50 worked out at 113 ± 7 µM. Besides, the half-inhibitory concentration (IC50) with 18Co colon fibroblasts was determined as 206 ± 17 µM. For the same compound, the 50% inhibitory concentration (IC50) in series [3] was determined as 29 ± 3 µM. Besides, in series [4], the IC50 worked out at 63 ± 5 µM.
Consider `CCCc1cc(=O)oc2cc(OCC=C(C)C)ccc12` [4e, 7-Prenyloxy-4-propyl-2H-chromen-2-one], for which the melting point stood at 89 °C. The IC50 in series [1] was greater than 250 µM. In addition, the IC50 in series [2] was greater than 250 µM.
The compound `CCCCCCCCOc1ccc2c(CCC)cc(=O)oc2c1` [4f, 7-Octyloxy-4-propyl-2H-chromen-2-one] yielded a melting point of 47 °C. Moreover, the IC50 in series [1] is 124 ± 39 µM. Moreover, the IC50 in series [2] is 143 ± 34 µM.
For `CC(C)=CCOc1cc(OCC=C(C)C)c2c(C)cc(=O)oc2c1` [4g, 5,7-Diprenyloxy-4-methyl-2H-chromen-2-one], the melting point came out at 90 °C. In addition, the IC50 in series [1] amounted to 69 ± 14 µM. Besides, the “fold more cytotoxic than monosubstituted analogue 4a” value in series [1] (MCF-7 cells, 4g versus 4a) is on record as “approximately 2.5 times”. Further, the half-maximal inhibitory concentration (IC50) in series [2] was found to be 144 ± 16 µM. Further, in the series on 18Co colon fibroblasts, the IC50 worked out at 216 ± 23 µM. In series [3], the IC50 worked out at 35 ± 9 µM. For the same compound, in series [4], the IC50 was 11 ± 2 µM.
`CCCc1cc(=O)oc2cc(OCC=C(C)C)cc(OCC=C(C)C)c12` [4h, 5,7-Diprenyloxy-4-propyl-2H-chromen-2-one] registered a melting point of 71 to 72 °C. Also, the IC50 in series [1] was 234 ± 76 µM. In series [2], the IC50 is 159 ± 61 µM.
With `CCCc1cc(=O)oc2cc(OC/C=C(\C)CCC=C(C)C)cc(OC/C=C(\C)CCC=C(C)C)c12` [4i, 5,7-Digeranyloxy-4-propyl-2H-chromen-2-one], the melting point was 79 °C. Moreover, in series [1], the IC50 was greater than 250 µM. Besides, the IC50 in series [2] came out at 133 ± 34 µM.
`CC(C)=CCOc1ccc2ccc(=O)oc2c1` [4j, 7-Prenyloxy-2H-chromen-2-one]: the IC50 in series [1] was 143 ± 11 µM; in series [2] it was 175 ± 33 µM.
For the compound `CC(C)=CCC/C(C)=C/COc1ccc2ccc(=O)oc2c1` [4k, 7-Geranyloxy-2H-chromen-2-one], the IC50 in series [1] was 70 ± 5 µM; in series [2], 60 ± 4 µM; in the series with 18Co colon fibroblasts it was 176 ± 62 µM; in series [3], 14 ± 5 µM; in series [4] it was 12 ± 8 µM. For the same compound, the “toxicity in words, 18Co fibroblasts” value in the series on 18Co colon fibroblasts (healthy control cells) is on record as “some toxicity”.
As for `CC(C)=CCCC(C)=CCCC(C)=CCOc1ccc2ccc(=O)oc2c1` [4l, 7-Farnesyloxy-coumarin], the IC50 in series [1] is 98 ± 9 µM; in series [2] it was 88 ± 3 µM; with 18Co colon fibroblasts, greater than 250 µM; in series [3], 9 ± 1 µM; in series [4] it was 7 ± 2 µM.
The compound `CC(C)=CCC/C(C)=C/CC/C(C)=C/CC/C(C)=C/COc1ccc2ccc(=O)oc2c1` [4m, 7-Geranylgeranyloxy-coumarin] came in with a melting point of 72 to 73 °C. Further, in series [1], the IC50 is greater than 250 µM. In addition, in series [2], the IC50 was 187 ± 66 µM.
In the case of `CC(=O)Oc1cc(OC(C)=O)c2c(C)cc(=O)oc2c1` [compound 5, 5,7-Diacetyloxy-4-methyl-2H-chromen-2-one], the IC50 in series [1] and in series [2] was greater than 250 µM each time.
As for `COc1cccc2c1C(=O)c1c(O)c3c(c(O)c1C2=O)C[C@@](O)(C(=O)CO)C[C@@H]3O[C@H]1C[C@H](N)[C@H](O)[C@H](C)O1` [doxorubicin, reference compound], the IC50 in series [1] stood at 0.97 µM; in series [2], 0.48 µM.
